Holding throughout (type): cell-based
The test system of assay [1] is human chronic myeloid leukemia cell line K562. Kind of assay: Cytostatic activity on leukemia cell line K562 (WST-1). To be noted: Homo sapiens; 10 μmol/L, 72 hours, K562 cells; read-out: cytostatic rate K562 (%) (10 μmol/L). As to the method: (§1) The cytostatic rates of a test compound on human acute myeloid leukemia cell lines MV-4-11 and ML-1, and human chronic myeloid leukemia cell line K562 were determined in the following manner.
(§2) Each cell was cultured using Roswell Park Memorial Institute's Medium (RPMI) 1640 (Gibco, Catalog No. 11875-093) containing 10% fetal bovine serum (Gibco, Catalog No. 10437-028) and 1% penicillin/streptomycin (1:1) (Gibco, Catalog No. 15140-122). Each 80 μL of the MV-4-11 cell having a concentration of 7.5×10^4 cells/mL (or the ML-1 cell or K562 cell having a concentration of 2.5×10^4 cells/mL) was inoculated to wells of a TC MICROWELL 96U plate (Nalge Nunc International, Catalog No. 163320) and was cultured in a 5% carbon dioxide gas incubator at 37° C. for 4 hours. As a blank, only RPMI medium (80 μL) was added to a well. Each 20 μL of a solution of the test compound in dimethyl sulfoxide (DMSO) which was prepared to make the final concentration to 10 μmol/L, was added to the MV-4-11 cell, ML-1 cell and K562 cell, respectively. Each 20 μL of DMSO was added to the control well and the blank well to […]. After adding the test compound, the cells were incubated in a 5% carbon dioxide gas incubator at 37° C. for 72 hours. After adding 20 μL of WST-1 reagent {4-[3-(4-iodophenyl)-2-(4-nitrophenyl)-2H-5-tetrazolio]-1,3-benzene disulfonate sodium salt} (Roche Diagnostics K.K., Catalog No. 1644807) diluted to 50% with RPMI medium, the cells were further incubated at 37° C. for 2 hours. Then, the absorbances at 450 nm (reference wavelength: 690 nm) were determined with a microplate spectrophotometer SPECTRA max 340PC (Molecular Devices Corporation). The relative growth (%) of a well to which the test compound had been added was determined while setting the absorbance of a well to which not the test compound but DMSO alone had been added (control) at 100% and that of a well containing RPMI medium alone at 0%. The cytostatic rate (%) of the test compound was determined by subtracting the calculated relative growth from 100.
Background: Tetrazolium assays rely on reduction of a dye to a coloured formazan, in cell work by metabolically active cells.

Assay [2] relates to human acute myeloid leukemia cell line MV-4-11. Briefly: Cytostatic activity on leukemia cell line MV-4-11 (WST-1). To be noted: Homo sapiens, MV4-11; 10 μmol/L, 72 hours, MV-4-11 cells; read-out: cytostatic rate MV-4-11 (%) (10 μmol/L). As to the method: as §1, §2
The subject of assay [3] is human acute myeloid leukemia cell line ML-1. Briefly: Cytostatic activity on leukemia cell line ML-1 (WST-1). Particulars: Homo sapiens, ML1; 10 μmol/L, 72 hours, ML-1 cells; read-out: cytostatic rate ML-1 (%) (10 μmol/L). As for the experimental part: as §1, §2
Assay [4] relates to human colon cancer cell line Colo205. Briefly: Cytostatic activity on solid carcinoma cell line Colo205 (WST-1). Particulars: Homo sapiens, COLO 205; 10 μmol/L, 72 hours, Colo205 cells; read-out: cytostatic rate Colo205 (%) (10 μmol/L). As to the method: as §2
The cytostatic rate of a test compound on the human colon cancer cell line Colo205 was determined in the following manner.
The cell was cultured using Roswell Park Memorial Institute's Medium (RPMI) 1640 (Gibco, Catalog No. 11875-093) containing 10% fetal bovine serum (Gibco, Catalog No. 10437-028) and 1% penicillin/streptomycin (1:1) (Gibco, Catalog No. 15140-122). Each 80 μL of the Colo205 having a concentration of 1.25×10^4 cells/mL was inoculated to wells of a TC MICROWELL 96F plate (Nalge Nunc International, Catalog No. 167008) and was cultured in a 5% carbon dioxide gas incubator at 37° C. for 24 hours. As a blank, only RPMI (80 μL) was added to a well. Each 20 μL of a solution of the test compound in DMSO which was prepared to make the final concentration to 10 μmol/L, was added to the Colo205 cell. Each 20 μL of DMSO was added to the control well and the blank well to […]. After adding the test compound, the cell was incubated in a 5% carbon dioxide gas incubator at 37° C. for 72 hours. The cytostatic rate (%) was then determined in the same way as the leukemia cell lines.

Structures are written as SMILES. Counter-ions that a name gives are not always drawn.

Consider `CS(=O)(=O)Nc1cccc(/C=C/c2n[nH]c3ccccc23)c1` [Compound 27, (E)-N-{3-[2-(1H-indazol-3-yl)vinyl]phenyl}methanesulfonamide], for which the inhibition at 10 µM in assay [1] was determined as 55%; in assay [2] it was 94%; in assay [3] it was 77%; in assay [4], 80%.

Take `O=C(NN1CCN(C(=O)c2ccc(/C=C/c3n[nH]c4ccccc34)cc2)CC1)N1CCOCC1` [Compound 150, (E)-1-{4-[2-(1H-indazol-3-yl)vinyl]benzoyl}-4-(morpholinocarbonylamino)piperazine]: the inhibition at 10 µM turned out to be 90% in assay [1], 97% in assay [2], 67% in assay [3] and 88% in assay [4].

Consider `CCN(CC)CCNC(=O)c1ccc(/C=C/c2n[nH]c3ccccc23)cc1` [Compound 63, (E)-N-[2-(diethylamino)ethyl]-4-[2-(1H-indazol-3-yl)vinyl]benzamide], for which the inhibition at 10 µM is 76% in assay [1], 98% in assay [2], 87% in assay [3] and 88% in assay [4].

`CC(C)C(=O)N1CCN(C(=O)c2ccc(/C=C/c3n[nH]c4ccccc34)cc2)CC1` [Compound 56, (E)-4-isobutyryl-1-{4-[2-(1H-indazol-3-yl)vinyl]benzoyl}piperazine]: the inhibition at 10 µM is 87% in assay [1], 98% in assay [2], 78% in assay [3] and 88% in assay [4].

`CCN(CC)C(=O)C1CCN(C(=O)c2ccc(/C=C/c3n[nH]c4ccccc34)cc2)CC1` [Compound 81, (E)-N,N-diethyl-1-{4-[2-(1H-indazol-3-yl)vinyl]benzoyl}piperidine-4-carboxamide]: the inhibition at 10 µM was 95% in assay [1], 98% in assay [2], 77% in assay [3] and 85% in assay [4].

Consider `NC(=O)C1CCN(C(=O)c2ccc(/C=C/c3n[nH]c4ccccc34)cc2)CC1` [Compound 86, (E)-1-{4-[2-(1H-indazol-3-yl)vinyl]benzoyl}piperidine-4-carboxamide], for which the inhibition at 10 µM in assay [1] turned out to be 88%; in assay [2], 98%; in assay [3] it was 87%; in assay [4] it was 89%.

For the compound `O=C(c1ccc(/C=C/c2n[nH]c3ccccc23)cc1)N1CCN(C(=O)c2ccsc2)CC1` [Compound 58, (E)-4-(3-thiophenecarbonyl)-1-{4-[2-(1H-indazol-3-yl)vinyl]benzoyl}piperazine], the inhibition at 10 µM came to 89% in assay [1], 96% in assay [2], 74% in assay [3] and 85% in assay [4].

With `COCCN1CCN(C(=O)c2ccc(/C=C/c3n[nH]c4ccccc34)cc2)CC1=O` [Compound 134, (E)-4-{4-[2-(1H-indazol-3-yl)vinyl]benzoyl}-1-(2-methoxyethyl)piperazin-2-one hydrochloride], the inhibition at 10 µM in assay [1] amounted to 91%; in assay [2] it was 100%; in assay [3], 88%; in assay [4], 91%.

For the compound `CC(C)(C)C(=O)N1CCN(C(=O)c2ccc(/C=C/c3n[nH]c4ccccc34)cc2)CC1` [Compound 40, (E)-1-{4-[2-(1H-indazol-3-yl)vinyl]benzoyl}-4-(pivaloyl)piperazine], the inhibition at 10 µM in assay [1] was determined as 96%; in assay [2], 98%; in assay [3], 67%; in assay [4] it was 88%.

In the case of `CC(=O)N1CCN(C(=O)c2ccc(/C=C/c3n[nH]c4ccccc34)cc2C)CC1` [Compound 73, (E)-4-acetyl-1-{2-methyl-4-[2-(1H-indazol-3-yl)vinyl]benzoyl}piperazine], the inhibition at 10 µM was determined as 68% in assay [1], 97% in assay [2], 87% in assay [3] and 89% in assay [4].

Turning to `N[C@H]1CCN(C(=O)c2ccc(/C=C/c3n[nH]c4ccccc34)cc2)C1` [Compound 159, (S)-(E)-1-{4-[2-(1H-indazol-3-yl)vinyl]benzoyl}-3-aminopyrrolidine], the inhibition at 10 µM in assay [1] came out at 93%; in assay [2] it was 99%; in assay [3], 86%; in assay [4] it was 92%.

`CCN(CC)C(=O)c1ccc(/C=C/c2n[nH]c3ccccc23)cc1` [Compound 15, (E)-N,N-Diethyl-4-[2-(1H-indazol-3-yl)vinyl]benzamide hydrochloride]: the inhibition at 10 µM was 100% in assay [1], 91% in assay [2], 94% in assay [3] and 92% in assay [4].

For the compound `O=C(c1ccc(/C=C/c2n[nH]c3ccccc23)cc1)N1CCN(C(=O)N2CCOCC2)CC1` [Compound 41, (E)-1-{4-[2-(1H-indazol-3-yl)vinyl]benzoyl}-4-(morpholinocarbonyl)piperazine], the inhibition at 10 µM is 95% in assay [1], 97% in assay [2], 83% in assay [3] and 90% in assay [4].

In the case of `CC(C)N1CCN(C(=O)c2ccc(/C=C/c3n[nH]c4ccccc34)cc2)CC1` [Compound 107, (E)-1-{4-[2-(1H-indazol-3-yl)vinyl]benzoyl}-4-isopropylpiperazine hydrochloride], the inhibition at 10 µM in assay [1] was 91%; in assay [2], 98%; in assay [3], 77%; in assay [4], 84%.

In the case of `CN(C)C(=O)C1CCN(C(=O)c2ccc(/C=C/c3n[nH]c4ccccc34)cc2)CC1` [Compound 92, (E)-N,N-dimethyl-1-{4-[2-(1H-indazol-3-yl)vinyl]benzoyl}piperidine-4-carboxamide], the inhibition at 10 µM worked out at 89% in assay [1], 98% in assay [2], 88% in assay [3] and 89% in assay [4].

On to `CC(C)(CO)C(=O)N1CCN(C(=O)c2ccc(/C=C/c3n[nH]c4ccccc34)cc2)CC1` [Compound 72, (E)-4-(3-hydroxy-2,2-dimethylpropionyl)-1-{4-[2-(1H-indazol-3-yl)vinyl]benzoyl}piperazine], for which the inhibition at 10 µM in assay [1] is 95%; in assay [2], 100%; in assay [3] it was 80%; in assay [4], 93%.

In the case of `CC(=O)N(C)CC(=O)N1CCN(C(=O)c2ccc(/C=C/c3n[nH]c4ccccc34)cc2)CC1` [Compound 138, (E)-4-(N-acetyl-N-methylaminoacetyl)-1-{4-[2-(1H-indazol-3-yl)vinyl]benzoyl}piperazine], the inhibition at 10 µM in assay [1] was 94%; in assay [2] it was 99%; in assay [3] it was 88%; in assay [4] it was 91%.

As to `NCC(=O)N1CCN(C(=O)c2ccc(/C=C/c3n[nH]c4ccccc34)cc2)CC1` [Compound 61, (E)-4-aminoacetyl-1-{4-[2-(1H-indazol-3-yl)vinyl]benzoyl}piperazine hydrochloride], the inhibition at 10 µM in assay [1] worked out at 85%; in assay [2] it was 98%; in assay [3], 79%; in assay [4] it was 87%.

(Values after US7919517B2, “Indazole derivatives” (Kyowa Hakko Kirin Co., Ltd., priority 2003, dated 2011).)
